Article PMC12499452, “The Multitarget Compound ZLY032 Achieves Treatment of Chronic Wounds” (Advanced Science, 2025)

What was measured:
[1] = molecular target: T1, ASAL (from S. aureus) (Staphylococcus aureus, UniProt Q2FIB5); test: surface plasmon resonance (Biacore T200, CM5 chip, immobilised protein); assay type: binding; details: read-out: affinity constant
T1 construct: gene argH; immobilised on CM5 chip
T1 sequence (Q2FIB5 1-459): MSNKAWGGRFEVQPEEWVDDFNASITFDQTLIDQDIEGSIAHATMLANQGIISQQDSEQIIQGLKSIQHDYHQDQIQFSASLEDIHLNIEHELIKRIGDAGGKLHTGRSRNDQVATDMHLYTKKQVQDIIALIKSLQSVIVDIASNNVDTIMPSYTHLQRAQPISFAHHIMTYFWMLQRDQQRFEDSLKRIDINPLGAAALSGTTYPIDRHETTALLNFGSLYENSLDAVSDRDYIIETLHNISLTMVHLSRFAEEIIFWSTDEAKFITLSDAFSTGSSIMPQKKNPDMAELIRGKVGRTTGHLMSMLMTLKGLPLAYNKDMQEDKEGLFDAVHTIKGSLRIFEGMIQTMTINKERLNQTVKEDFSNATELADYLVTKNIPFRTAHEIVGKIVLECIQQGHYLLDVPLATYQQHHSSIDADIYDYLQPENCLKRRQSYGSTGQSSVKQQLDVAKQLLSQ

[2] = molecular target: T2, FFA1 (Homo sapiens, UniProt O14842); test: cellular thermal shift assay (CETSA), Western blot; assay type: cell-based; details: HEK293T cells
T2 construct: gene FFAR1; apparently endogenous in HEK293T cells (no transfection told); Western blot read-out

[3] = molecular target: T3, PPARδ (Homo sapiens, UniProt Q03181); test: cellular thermal shift assay (CETSA), Western blot; assay type: cell-based; details: HEK293T cells
T3 construct: gene PPARD; apparently endogenous in HEK293T cells (no transfection told); Western blot read-out
T3 sequence (Q03181 1-441): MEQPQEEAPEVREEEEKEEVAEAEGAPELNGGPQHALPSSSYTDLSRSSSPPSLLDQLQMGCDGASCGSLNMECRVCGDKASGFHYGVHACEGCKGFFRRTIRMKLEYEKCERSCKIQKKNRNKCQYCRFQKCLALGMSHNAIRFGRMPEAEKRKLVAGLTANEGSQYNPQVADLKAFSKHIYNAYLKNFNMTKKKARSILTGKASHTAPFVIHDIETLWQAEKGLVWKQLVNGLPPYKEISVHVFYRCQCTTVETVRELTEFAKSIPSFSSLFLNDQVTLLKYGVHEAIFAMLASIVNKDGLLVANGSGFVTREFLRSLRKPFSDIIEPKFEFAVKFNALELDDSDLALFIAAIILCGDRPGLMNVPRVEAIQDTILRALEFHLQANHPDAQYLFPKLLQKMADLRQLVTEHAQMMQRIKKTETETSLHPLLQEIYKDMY

T2 sequence (O14842 whole entry): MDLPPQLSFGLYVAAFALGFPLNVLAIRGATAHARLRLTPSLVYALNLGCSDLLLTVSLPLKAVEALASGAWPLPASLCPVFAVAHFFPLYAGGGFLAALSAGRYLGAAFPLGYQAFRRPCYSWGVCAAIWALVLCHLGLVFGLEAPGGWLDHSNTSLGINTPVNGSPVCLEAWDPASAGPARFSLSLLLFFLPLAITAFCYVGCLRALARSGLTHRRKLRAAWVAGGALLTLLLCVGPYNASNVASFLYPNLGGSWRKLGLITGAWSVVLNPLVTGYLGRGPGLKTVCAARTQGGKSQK

Cc1nc(-c2ccc(C(F)(F)F)cc2)sc1COc1ccc2c(c1)OC[C@H]2CC(=O)O [ZLY032]
Kd [1]: 10.9 µM
cellular thermal shift assay (CETSA), Western blot [2]: ZLY032 had direct binding ability with FFA1 and PPARδ (Figure S11, Supporting Information)
cellular thermal shift assay (CETSA), Western blot [3]: ZLY032 had direct binding ability with FFA1 and PPARδ (Figure S11, Supporting Information)
